# Experimental data published in paper PMC9090415, “Discovery of small molecule inhibitors of Plasmodium falciparum apicoplast DNA polymerase” (Journal of Enzyme Inhibition and Medicinal Chemistry, 2022).
# pIC50: −log10 of the molar value.
# Biological target: P. falciparum apicoplast DNA polymerase (Pf-apPOL) (Plasmodium falciparum, UniProt Q8ILY1)
# Experiment: Fluorescence-based high-throughput DNA polymerase assay (molecular beacon), primary screen and dose-response;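 on % inhibition ApPOL 90': test concentration in µM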;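 on % inhibition apPOL 180': test concentration in µM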
# Format: biochemical
# Details: for DNA Pol: 90 min, 10 µM; for pIC50: supplemental file 2, sheet IC50 nontoxic compounds, Pf-apPOL
# Procedure, shortened: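 Single-point screening used 10 µM compound with 20 nM polymerase, 20 nM hairpin substrate and 6 µM dNTPs for 90 min at 25 °C. Confirmatory titrations (2.5–80 µM) followed fluorescence at three times, and IC50 was derived from a fit including a cooperativity term n.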
# P. falciparum apicoplast DNA polymerase (Pf-apPOL), sequence (Q8ILY1 entry or part of it): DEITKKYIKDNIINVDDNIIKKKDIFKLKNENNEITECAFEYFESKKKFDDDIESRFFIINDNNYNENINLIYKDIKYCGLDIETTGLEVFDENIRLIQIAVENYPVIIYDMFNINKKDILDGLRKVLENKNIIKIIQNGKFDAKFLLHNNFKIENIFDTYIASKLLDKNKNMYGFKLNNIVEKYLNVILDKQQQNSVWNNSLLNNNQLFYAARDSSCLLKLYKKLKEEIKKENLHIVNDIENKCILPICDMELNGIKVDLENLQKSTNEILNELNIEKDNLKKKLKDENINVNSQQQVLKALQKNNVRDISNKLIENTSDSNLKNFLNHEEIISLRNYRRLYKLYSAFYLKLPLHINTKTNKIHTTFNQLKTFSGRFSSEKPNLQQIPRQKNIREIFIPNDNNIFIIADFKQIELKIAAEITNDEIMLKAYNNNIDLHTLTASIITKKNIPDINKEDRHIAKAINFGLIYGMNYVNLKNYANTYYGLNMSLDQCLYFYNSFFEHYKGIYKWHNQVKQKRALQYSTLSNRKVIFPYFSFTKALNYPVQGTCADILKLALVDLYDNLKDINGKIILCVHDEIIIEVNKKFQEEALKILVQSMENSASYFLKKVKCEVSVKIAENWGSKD
compound,measurement,setting,value
Cc1ccc(N2NC(=O)/C(=C\c3ccc(O)c([N+](=O)[O-])c3)C2=O)cc1Cl [KU0058427],DNA Pol,'DNA Pol' of the 186 hits list (screen value),41
same,% inhibition Apo pol 10',"DRC-1, conc 2.5",22.1005%
same,% inhibition Apo pol 10',"DRC-1, conc 5",22.1201%
same,% inhibition Apo pol 10',"DRC-1, conc 10",57.6403%
same,% inhibition Apo pol 10',"DRC-1, conc 20",74.2262%
same,% inhibition Apo pol 10',"DRC-1, conc 40",90.9483%
same,% inhibition Apo pol 10',"DRC-1, conc 80",95.3494%
same,% inhibition Apol 90',"DRC-1, 90', conc 2.5",11.8681%
same,% inhibition Apol 90',"DRC-1, 90', conc 5",11.4719%
same,% inhibition Apol 90',"DRC-1, 90', conc 10",38.0061%
same,% inhibition Apol 90',"DRC-1, 90', conc 20",55.0808%
same,% inhibition Apol 90',"DRC-1, 90', conc 40",83.5201%
same,% inhibition Apol 90',"DRC-1, 90', conc 80",94.8173%
same,% inhibition apPOL 180',"DRC-1, conc 2.5",4.9901%
same,% inhibition apPOL 180',"DRC-1, conc 5",2.877%
same,% inhibition apPOL 180',"DRC-1, conc 10",25.4818%
same,% inhibition apPOL 180',"DRC-1, conc 20",38.9214%
same,% inhibition apPOL 180',"DRC-1, conc 40",73.2638%
same,% inhibition apPOL 180',"DRC-1, conc 80",93.9984%
same,% inhibition Apo pol 5',"DRC-2, 5', conc 2.5",11%
same,% inhibition Apo pol 5',"DRC-2, 5', conc 5",21%
same,% inhibition Apo pol 5',"DRC-2, 5', conc 10",35%
same,% inhibition Apo pol 5',"DRC-2, 5', conc 20",44%
same,% inhibition Apo pol 5',"DRC-2, 5', conc 40",54%
same,% inhibition Apo pol 5',"DRC-2, 5', conc 80",56%
same,% inhibition Apo pol 5',"DRC-2, 5', concentration 2.5",11%
same,% inhibition Apo pol 5',"DRC-2, 5', concentration 20",44%
same,% inhibition Apol 40',"DRC-2, 40', conc 2.5",11%
same,% inhibition Apol 40',"DRC-2, 40', conc 5",20%
same,% inhibition Apol 40',"DRC-2, 40', conc 10",34%
same,% inhibition Apol 40',"DRC-2, 40', conc 20",46%
same,% inhibition Apol 40',"DRC-2, 40', conc 40",64%
same,% inhibition Apol 40',"DRC-2, 40', conc 80",74%
same,% inhibition Apol 40',"DRC-2, 40', concentration 2.5",11%
same,% inhibition Apol 40',"DRC-2, 40', concentration 5",20%
same,% inhibition ApPOL 90',"DRC-2, 90', conc 2.5",9%
same,% inhibition ApPOL 90',"DRC-2, 90', conc 5",19%
same,% inhibition ApPOL 90',"DRC-2, 90', conc 10",28%
same,% inhibition ApPOL 90',"DRC-2, 90', conc 20",44%
same,% inhibition ApPOL 90',"DRC-2, 90', conc 40",65%
same,% inhibition ApPOL 90',"DRC-2, 90', conc 80",78%
same,% inhibition ApPOL 90',"DRC-2, 90', concentration 2.5",9%
same,% inhibition ApPOL 90',"DRC-2, 90', concentration 20",44%
same,% inhibition apPOL 180',"DRC-2, conc 2.5",2.37%
same,% inhibition apPOL 180',"DRC-2, conc 5",9%
same,% inhibition apPOL 180',"DRC-2, conc 10",20%
same,% inhibition apPOL 180',"DRC-2, conc 20",33%
same,% inhibition apPOL 180',"DRC-2, conc 40",57%
same,% inhibition apPOL 180',"DRC-2, conc 80",80%
same,% inhibition apPOL 180',"DRC-2, concentration 5",9%
same,% inhibition apPOL 180',"DRC-2, concentration 10",20%
same,DNA Pol,"primary screen value, ""DNA Pol""",41
Cc1cc(C)nc(Nc2nc(CC(=O)Nc3nc(-c4ccco4)cs3)cs2)n1 [Molecule 92],pIC50,,5.07
"CCOc1cccc2cc(C(=O)Nc3nnc(-c4ccno4)o3)oc12 [Molecule 28, CCOc1cccc2c1oc(c2)C(=O)Nc1nnc(o1)c1ccno1]",% inhibition Apo pol 10',"DRC-1, concentration 2.5",10.6274%
same,% inhibition Apo pol 10',"DRC-1, concentration 5",33.541%
same,% inhibition Apo pol 10',"DRC-1, concentration 10",66.1299%
same,% inhibition Apo pol 10',"DRC-1, concentration 20",85.0301%
same,% inhibition Apo pol 10',"DRC-1, concentration 40",91.7568%
same,% inhibition Apo pol 10',"DRC-1, concentration 80",93.7028%
same,% inhibition Apol 90',"DRC-1, 90', concentration 2.5",2.531%
same,% inhibition Apol 90',"DRC-1, 90', concentration 5",15.4654%
same,% inhibition Apol 90',"DRC-1, 90', concentration 10",41.5074%
same,% inhibition Apol 90',"DRC-1, 90', concentration 20",63.6828%
same,% inhibition Apol 90',"DRC-1, 90', concentration 40",78.9695%
same,% inhibition Apol 90',"DRC-1, 90', concentration 80",87.3573%
same,% inhibition apPOL 180',"DRC-1, concentration 2.5",-1.99%
same,% inhibition apPOL 180',"DRC-1, concentration 5",5.082%
same,% inhibition apPOL 180',"DRC-1, concentration 10",24.8097%
same,% inhibition apPOL 180',"DRC-1, concentration 20",44.8371%
same,% inhibition apPOL 180',"DRC-1, concentration 40",65.9166%
same,% inhibition apPOL 180',"DRC-1, concentration 80",81.0763%
same,% inhibition Apo pol 5',"DRC-2, 5', concentration 20 (unit not given)",45%
same,% inhibition Apo pol 5',"DRC-2, 5', concentration 40 (unit not given)",45%
same,% inhibition Apol 40',"DRC-2, 40', concentration 80 (unit not given)",66%
same,% inhibition ApPOL 90',"DRC-2, 90', concentration 10 (unit not given)",45%
same,% inhibition ApPOL 90',"DRC-2, 90', concentration 40 (unit not given)",66%
same,% inhibition Apo pol 5',"DRC-2, 5', concentration 2.5",16%
same,% inhibition Apo pol 5',"DRC-2, 5', concentration 5",28%
same,% inhibition Apo pol 5',"DRC-2, 5', concentration 10",46%
same,% inhibition Apo pol 5',"DRC-2, 5', concentration 20",45%
same,% inhibition Apo pol 5',"DRC-2, 5', concentration 40",45%
same,% inhibition Apo pol 5',"DRC-2, 5', concentration 80",39%
same,% inhibition Apol 40',"DRC-2, 40', concentration 2.5",14%
same,% inhibition Apol 40',"DRC-2, 40', concentration 5",24%
same,% inhibition Apol 40',"DRC-2, 40', concentration 10",50%
same,% inhibition Apol 40',"DRC-2, 40', concentration 20",57%
same,% inhibition Apol 40',"DRC-2, 40', concentration 40",64%
same,% inhibition Apol 40',"DRC-2, 40', concentration 80",66%
same,% inhibition ApPOL 90',"DRC-2, 90', concentration 2.5",11%
same,% inhibition ApPOL 90',"DRC-2, 90', concentration 5",20%
same,% inhibition ApPOL 90',"DRC-2, 90', concentration 10",45%
same,% inhibition ApPOL 90',"DRC-2, 90', concentration 20",56%
same,% inhibition ApPOL 90',"DRC-2, 90', concentration 40",66%
same,% inhibition ApPOL 90',"DRC-2, 90', concentration 80",70%
same,% inhibition apPOL 180',"DRC-2, concentration 2.5",2%
same,% inhibition apPOL 180',"DRC-2, concentration 5",5%
same,% inhibition apPOL 180',"DRC-2, concentration 10",29%
same,% inhibition apPOL 180',"DRC-2, concentration 20",44%
same,% inhibition apPOL 180',"DRC-2, concentration 40",61%
same,% inhibition apPOL 180',"DRC-2, concentration 80",72%
same,DNA Pol,"primary screen value of the 186 hits, unit not given",79
same,DNA Pol,"primary screen value, head ""DNA Pol"", unit not given",79
O=C(Nc1nnc(-c2ccno2)o1)c1ccc2ncsc2c1 [Molecule 62],pIC50,,4.85
Cc1cc2[nH]c(C(=O)Nc3ccc(F)cc3)c(CN3CCOCC3)c2s1 [Molecule 60],pIC50,,4.66
